One experiment has as its system Rabbit ileum. The experiment is described as follows: Isolated rabbit ileum, tonus. The settings on record: without dihydroxyacetone. Here is the method:
Fragments of the ileum were suspended in a 75 ml isolated organ tank containing Tyrode's solution maintained at 37° C. by a thermostat and oxygenated by bubbling pure oxygen at a constant rate of flow. The movement of the organ were recorded by means of a lever on a cylinder rotating at a known constant speed.

Experiment [1] relates to reticulo-endothelial system. Put plainly: Phagocytic activity of the reticulo-endothelial system, carbon clearance (HALPERN). The experiment is classed as in vivo, rabbit. The conditions noted are these: FIGS. 3 and 4. An excerpt:
That technique is based on the study of the kinetics of the disappearance in the blood of particles of carbon injected into the vein. The kinetics of disappearance follow the equation [formula] in which formula C1 is the concentration of carbon in the blood at time T1 and C2 is the concentration of carbon in the blood at time T2, K being a constant. The constant K, called phagocytic index, represents the phagocytic activity of the cells of the reticule-endothelial system under the experimental conditions. For the tests, the technique and carbon suspension described by […]. Physiol. of Paris, Vol. 50, p. […] The study was done on rabbits of the same stock, male or female, or an average weight of about 2.5 kg, devided into four batches of four animals each. The first batch was used as controls and received, by slow intravenous injection, 10 ml of a 0.8% solution of sodium chloride ten minutes before the injection of 4 mg of carbon per 100 g of animal. […] In all the tests, a total volume of 10 ml was injected with a fairly closely related injection speed (less than five minutes).

The subject of the next experiment is Rabbit atrium. The experiment is described as follows: Isolated rabbit atrium. The settings on record: rabbit atrium. From the text:
The technique used for this study was the same as that described above for the ileum of the rabbit, but replacing the ileum with bled rabbit atrium. The preservation liquid used as LOCKE's liquid.

Another experiment deals with glucidic metabolism. The experiment is described as follows: Glucidic metabolism under intravenous perfusion in rabbits (lactacidemia, pyruvicemia, glycemia). The conditions noted are these: 30 and 60 minutes after perfusion. The experiment is classed as in vivo, rabbit. As to the method: These tests were carried out on rabbits weighing an average of 2.500 kg.
A trachetomy was carried out under local anaesthesia with procaine. […] A saphenous vein and the two femoral arteries were catheterized under local anaesthesia in order to register the blood pressure by a manometer and to take blood samples; a jugular vein was catheterized to the base of the skull to sample cerebral venous blood.
The results obtained were compared with those obtained following a perfusion carried out in the same way with sodium d,l-lactate at a dose of 40 mg/kg/min.
The glycemia was measured by the enzymatic method in the arterial and cerebral venus blood. The samples were taken before the perfusion, at the end of the perfusion, and at 30 minutes and 60 minutes after perfusion.

A further experiment relates to hemorrhagic shock. Put plainly: Irreversible hemorrhagic shock (WIGGERS) in dogs. The conditions noted are these: irreversible shock.
Experiment [2] deals with free fatty acids in the plasma. Put plainly: Non-esterified fatty acids in the plasma (DOLE). The format is in vivo, rabbit. As to the method: Doses of 1 and 2 mg of adrenalin were introduced subcutaneously into rabbits weighing 2.5 to 3.5 kg.
FIGS. 8, 9 and 10 show the variation in the percentage of non-esterified fatty acids in the plasma as a function of the time. […]

Description for hemorrhagic shock: These experiments were carried out with dogs. […] Spontaneous reinjection, by progressive circulatory failure, of a quarter of the mass of blood effused during the second hemmorhage, was chosen as the irreversibility criterion. The following parameters were measured: pH, arterial and venous CO2 pressure (with a radiometertype apparatus), lactacidemia, pyruvicemia and glycemia (by the enzymatic method), and kalemia (with a flame photometer). Samples were taken from the dogs before irreversibility, immediately after, one hour 11/2 hours and 2R hours thereafter. The blood pressure was followed by femoral intubation and recorded with an apparatus providing mean arterial bloodpressure readings.

Regarding `[Cl-].[K+]` [Potassium chloride, reference compound], the “tonus of the fiber, ordinary effect” value in the experiment on Rabbit ileum is on record as “increases the tonus of the fiber in a stable manner”.

As to `CC(O)C(=O)O` (racemic) [sodium lactate, sodium d,l-lactate, reference compound], the rate of phagocytosis entry in experiment [1] is recorded as “increased”. In addition, the “action on rhythm of atrium” value in the experiment on Rabbit atrium was “accelerates the rhythm”. For the same compound, the “lactacidemia at 30 and 60 minutes after the end of perfusion” value with glucidic metabolism is given as “tended to return to its initial values”.

On to `O=C[C@H](O)[C@@H](O)[C@H](O)[C@H](O)CO` [hypertonic glucose, glucose, reference compound], for which the “effect on the blood pressure in hemorrhagic shock” value in the experiment with hemorrhagic shock is listed as “no effect”; with hemorrhagic shock (listed as 30% glucose), “none”.

As to `CNCC(O)c1ccc(O)c(O)c1` (stereo not drawn) [adrenalin], the “proportion of non-esterified fatty acids one hour after injection” value was “fell below normal” in experiment [2] (1 mg of adrenalin, FIG. 9) and “again increased” in experiment [2] (2 mg of adrenalin, FIG. 8). In addition, the “average proportion of non-esterified fatty acids about 10 to 15 minutes after injection” value in experiment [2] (1 or 2 mg of adrenalin, fed rabbits) is “increased”.

The values above are taken from US4049795A, “Treatment of hemorrhagic shock” (priority 1974, dated 1977).
